Laboratory results taken from patent US20240381872A1, “SUBSTITUTED 2,3-DIHYDRO[1,3]THIAZOLO[4,5-B]PYRIDINES, SALTS THEREOF AND THEIR USE AS HERBICIDALLY ACTIVE SUBSTANCES” (BAYER AKTIENGESELLSCHAFT, priority 2021, published 2024).

Columns and labels:
Format in all cases: in vivo
Stellaria media (STEME) [1] = experiment: Herbicidal pre-emergence action, section A (Table A9); conditions: application rate 1280 g/ha
Source text: (§1) Seeds of mono- and dicotyledonous weed plants were sown in plastic pots (double sowings with one species of mono- and one species of dicotyledonous weed plants per pot), in sandy loam, and covered with soil. The compounds according to the invention, formulated in the form of wettable powders (WP) or as emulsifiable concentrates (EC), were applied to the surface of the covering soil as aqueous suspension or emulsion, with the addition of 0.5% of an additive, at an application rate of 600 l of water per hectare (converted). Following treatment, the pots were placed in a greenhouse and kept under optimum growth conditions for the test plants. The visual grading of the damage to the test plants was carried out after ca. 3 weeks in comparison to untreated controls (herbicidal effect in percent (%): 100% effect=plants have died off, 0% effect=as control plants).

[2] = tested on: Matricaria inodora (MATIN); experiment: Herbicidal pre-emergence action, section A (Table A6); conditions: application rate 1280 g/ha; visual grading after ca. 3 weeks vs untreated controls
Source text: as §1

Kochia scoparia (KCHSC) [3] = experiment: Herbicidal post-emergence action, section B (Table B4); conditions: application rate 1280 g/ha; visual rating about 3 weeks after treatment vs untreated controls
Protocol: (§2) Seeds of mono- and dicotyledonous weed plants were placed in plastic pots in sandy loam soil (doubly sown with in each case one species of mono- or dicotyledonous weed plants per pot), covered with soil and cultivated in a greenhouse under controlled growth conditions. 2 to 3 weeks after sowing, the test plants were treated at the one-leaf stage. The compounds of the invention, formulated in the form of wettable powders (WP) or as emulsion concentrates (EC), were applied onto the green parts of the plants as aqueous suspension or emulsion with addition of 0.5% additive at a water application rate of 600 liters per hectare (converted). After the test plants had been kept in the greenhouse under optimum growth conditions for about 3 weeks, the activity of the preparations was rated visually in comparison to untreated controls. For example, 100% activity=the plants have died, 0% activity=like control plants.

[4] = tested on: Amaranthus retroflexus (AMARE); experiment: Herbicidal post-emergence action, section B (Table B11); conditions: application rate 1280 g/ha; visual rating about 3 weeks after treatment vs untreated controls
Protocol: as §2

Setaria viridis (SETVI) = experiment: Herbicidal pre-emergence action, section A (Table A8)
Source text: as §1

Kochia scoparia (KCHSC) [5] = experiment: Herbicidal pre-emergence action, section A (Table A4); conditions: application rate 1280 g/ha; visual grading after ca. 3 weeks vs untreated controls
Source text: as §1

Stellaria media (STEME) [6] = experiment: Herbicidal post-emergence action, section B (Table B9); conditions: application rate 1280 g/ha; visual rating about 3 weeks after treatment vs untreated controls
Protocol: as §2

[7] = tested on: Digitaria sanguinalis (DIGSA); experiment: Herbicidal pre-emergence action, section A (Table A12); conditions: application rate 1280 g/ha
Source text: as §1

[8] = tested on: Abutilon theophrasti (ABUTH); experiment: Herbicidal post-emergence action, section B (Table B1); conditions: application rate 1280 g/ha, rated visually after about 3 weeks
Protocol: as §2

Poa annua (POAAN) [9] = experiment: Herbicidal pre-emergence action, section A (Table A7); conditions: application rate 1280 g/ha; visual grading after ca. 3 weeks vs untreated controls
Source text: as §1

[10] = tested on: Amaranthus retroflexus (AMARE); experiment: Herbicidal pre-emergence action, section A (Table A11)
Source text: as §1

[11] = tested on: Echinochloa crus-galli (ECHCG); experiment: Herbicidal pre-emergence action, section A (Table A3); conditions: application rate 320 g/ha; visual grading after ca. 3 weeks vs untreated controls
Source text: as §1

Lolium rigidum (LOLRI) = experiment: Herbicidal pre-emergence action, section A (Table A5); conditions: application rate 1280 g/ha; visual grading after ca. 3 weeks vs untreated controls
Source text: as §1

Veronica persica (VERPE) = experiment: Herbicidal post-emergence action, section B (Table B10); conditions: application rate 320 g/ha; visual rating about 3 weeks after treatment vs untreated controls
Protocol: as §2

[12] = tested on: Echinochloa crus-galli (ECHCG); experiment: Herbicidal post-emergence action, section B (Table B3); conditions: application rate 1280 g/ha, rated visually after about 3 weeks
Protocol: as §2

Poa annua (POAAN) [13] = experiment: Herbicidal post-emergence action, section B (Table B7); conditions: application rate 1280 g/ha; visual rating about 3 weeks after treatment vs untreated controls
Protocol: as §2

[14] = tested on: Digitaria sanguinalis (DIGSA); experiment: Herbicidal post-emergence action, section B (Table B12); conditions: application rate 1280 g/ha; visual rating about 3 weeks after treatment vs untreated controls
Protocol: as §2

| Compound | pre-emergence activity against STEME in % (Stellaria media (STEME) [1]) | pre-emergence activity against MATIN in % [2] | post-emergence activity against KCHSC in % (Kochia scoparia (KCHSC) [3]) | post-emergence activity against AMARE in % [4] | pre-emergence activity against SETVI in % (Setaria viridis (SETVI); application rate 320 g/ha) | pre-emergence activity against KCHSC in % (Kochia scoparia (KCHSC) [5]) | post-emergence activity against STEME in % (Stellaria media (STEME) [6]) | pre-emergence activity against DIGSA in % [7] | post-emergence activity against ABUTH in % [8] | pre-emergence activity against POAAN in % (Poa annua (POAAN) [9]) | pre-emergence activity against AMARE in % ([10]; application rate 320 g/ha) | pre-emergence activity against ECHCG in % [11] | pre-emergence activity against LOLRI in % (Lolium rigidum (LOLRI)) | post-emergence activity against VERPE in % (Veronica persica (VERPE)) | pre-emergence activity against SETVI in % (Setaria viridis (SETVI); application rate 1280 g/ha) | post-emergence activity against ECHCG in % [12] | post-emergence activity against POAAN in % (Poa annua (POAAN) [13]) | post-emergence activity against DIGSA in % [14] | pre-emergence activity against AMARE in % ([10]; application rate 1280 g/ha) |
| --- | --- | --- | --- | --- | --- | --- | --- | --- | --- | --- | --- | --- | --- | --- | --- | --- | --- | --- | --- |
| Cc1cccc(F)c1-c1nc2c(cc1Br)SCN2 [Example I-032] | 100% | 90% | 90% | 90% | 100% | 90% | 90% | 100% | 90% | 100% | 90% | 100% | 100% | – | – | – | – | – | – |
| COC(=O)CCC(=O)N1CSc2cc(Br)c(-c3ccc(F)cc3F)nc21 [Example I-085] | – | – | – | 90% | – | – | 90% | – | 90% | 100% | – | – | – | 100% | 100% | 90% | 90% | – | – |
| CC(=O)N1CSc2cc(Br)c(-c3cccc(Cl)c3F)nc21 [Example I-115] | 90% | – | – | – | – | 90% | – | 100% | – | – | – | – | – | – | – | – | 90% | 90% | 90% |
